In ChEMBL document CHEMBL1201862, “PubChem BioAssay data set” (2004):
Where a name gives a salt, the structure may show the parent alone.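 The compound was tested at five concentrations on cells cultured in 96-well plates, with a 48-hour exposure period. At the GI50, growth is halved.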 Calls of active or inactive are those of the source. Cut-off read from the data, not from the text of the source: active = GI50 up to about 1.1 µM and inactive = higher.

How the values were obtained:
Experiment in all cases: NCI tumour cell line growth inhibition, 48 h
LXFL 529 = test system: LXFL 529
UACC-62 = test system: UACC-62
SN12C = test system: SN12C
HCT-116 = test system: HCT-116
KM12 = test system: KM12
HOP-62 = test system: HOP-62
A549 = test system: A549
RXF 393 = test system: RXF 393
OVCAR-8 = test system: OVCAR-8
SK-OV-3 = test system: SK-OV-3
SW-620 = test system: SW-620
HCC 2998 = test system: HCC 2998
HOP-92 = test system: HOP-92
Malme-3M = test system: Malme-3M
A498 = test system: A498
NCI-H460 = test system: NCI-H460
MDA-MB-231 = test system: MDA-MB-231
SR = test system: SR
BT-549 = test system: BT-549
T47D = test system: T47D

Structure (SMILES) | GI50 (LXFL 529) | GI50 (UACC-62) | GI50 (SN12C) | GI50 (HCT-116) | GI50 (KM12) | GI50 (HOP-62) | GI50 (A549) | GI50 (RXF 393) | GI50 (OVCAR-8) | GI50 (SK-OV-3) | GI50 (SW-620) | GI50 (HCC 2998) | GI50 (HOP-92) | GI50 (Malme-3M) | GI50 (A498) | GI50 (NCI-H460) | GI50 (MDA-MB-231) | GI50 (SR) | GI50 (BT-549) | GI50 (T47D)
CNC(C)Cc1ccccc1OC (configuration not stated) [METHOXYPHENAMINE HYDROCHLORIDE] | > 100 µM (inactive) | > 100 µM (inactive) | > 100 µM (inactive) | > 100 µM (inactive) | > 100 µM (inactive) | > 100 µM (inactive) | > 100 µM (inactive) | > 100 µM (inactive) | > 100 µM (inactive) | > 100 µM (inactive) | > 100 µM (inactive) | > 100 µM (inactive) | > 100 µM (inactive) | > 100 µM (inactive) | > 100 µM (inactive) | > 100 µM (inactive) | – | – | – | –
O=C/C1=C/C2=Cc3ccccc3C=C(/C=C(/C=O)C1)C2 | 30.3 µM (inactive) | 73.6 µM (inactive) | 42.6 µM (inactive) | 19.4 µM (inactive) | 36.1 µM (inactive) | 74.8 µM (inactive) | > 100 µM (inactive) | 28.1 µM (inactive) | 28.9 µM (inactive) | – | 44.7 µM (inactive) | 45.9 µM (inactive) | 27.7 µM (inactive) | 90.4 µM (inactive) | > 100 µM (inactive) | 81.1 µM (inactive) | – | – | – | –
CN(C)/C(=N/C(=O)Nc1ccccc1)SCc1ccccc1 | > 100 µM (inactive) | > 100 µM (inactive) | > 100 µM (inactive) | – | > 100 µM (inactive) | > 100 µM (inactive) | > 100 µM (inactive) | 58.9 µM (inactive) | > 100 µM (inactive) | > 100 µM (inactive) | > 100 µM (inactive) | > 100 µM (inactive) | – | > 100 µM (inactive) | > 100 µM (inactive) | – | – | – | – | –
CCN(CC)c1c(C)nnn1C1OC(COC(C)=O)C(OC(C)=O)C(OC(C)=O)C1OC(C)=O (configuration not stated) | > 100 µM (inactive) | > 100 µM (inactive) | > 100 µM (inactive) | > 100 µM (inactive) | > 100 µM (inactive) | > 100 µM (inactive) | > 100 µM (inactive) | – | > 100 µM (inactive) | > 100 µM (inactive) | 15 µM (inactive) | > 100 µM (inactive) | 70.8 µM (inactive) | > 100 µM (inactive) | > 100 µM (inactive) | > 100 µM (inactive) | – | – | – | –
CN(/N=C\c1ccc2ccccc2c1)C1=NCCCCN1 | – | 27.2 µM (inactive) | 18.5 µM (inactive) | 24.9 µM (inactive) | 20.9 µM (inactive) | 19.2 µM (inactive) | 18.8 µM (inactive) | 12.5 µM (inactive) | 29.8 µM (inactive) | 22.1 µM (inactive) | 17.9 µM (inactive) | 14.5 µM (inactive) | 0.124 µM (active) | 14.9 µM (inactive) | 21 µM (inactive) | 17.2 µM (inactive) | 21.9 µM (inactive) | 21.2 µM (inactive) | 14.6 µM (inactive) | 31.6 µM (inactive)
O=C1OC(c2ccccc2)=N/C1=C/N1CCCC1C(=O)O (configuration not stated) | > 100 µM (inactive) | > 100 µM (inactive) | – | > 100 µM (inactive) | > 100 µM (inactive) | > 100 µM (inactive) | > 100 µM (inactive) | > 100 µM (inactive) | > 100 µM (inactive) | > 100 µM (inactive) | > 100 µM (inactive) | > 100 µM (inactive) | > 100 µM (inactive) | > 100 µM (inactive) | > 100 µM (inactive) | > 100 µM (inactive) | – | – | – | –
CC(=O)O[C@H]1C(=O)[C@@]2(C)[C@H]([C@H](OC(=O)c3ccccc3)[C@]3(O)C[C@H](OC(=O)[C@H](O)[C@@H](NC(=O)c4ccccc4)c4ccccc4C)C(C)=C1C3(C)C)[C@]1(OC(C)=O)CO[C@@H]1C[C@@H]2O | – | 1.22 µM (inactive) | 2.11 µM (inactive) | 0.177 µM (active) | 0.163 µM (active) | 0.326 µM (active) | 1.7 µM (inactive) | 0.525 µM (active) | 1.41 µM (inactive) | 1.02 µM (active) | 0.351 µM (active) | 0.782 µM (active) | 2.13 µM (inactive) | 1.66 µM (inactive) | 0.444 µM (active) | 0.811 µM (active) | 3.18 µM (inactive) | 0.136 µM (active) | 0.687 µM (active) | > 25 µM (inactive)
CC1=NN(C(=O)CC(=O)Nc2ccccc2F)C(=O)C1/N=N/c1ccccc1[N+](=O)[O-] (configuration not stated) | > 100 µM (inactive) | 26.2 µM (inactive) | > 100 µM (inactive) | > 100 µM (inactive) | > 100 µM (inactive) | > 100 µM (inactive) | 64.7 µM (inactive) | 45.1 µM (inactive) | 58.5 µM (inactive) | > 100 µM (inactive) | > 100 µM (inactive) | – | – | > 100 µM (inactive) | – | – | – | – | – | –
NCCCCC(N)C(=O)NCCNc1ccc(NCCNC(=O)C(N)CCCCN)c2c1C(=O)c1ccccc1C2=O (configuration not stated) | – | > 100 µM (inactive) | 4.11 µM (inactive) | 17.3 µM (inactive) | > 81.3 µM (inactive) | 9.46 µM (inactive) | 63 µM (inactive) | 9.86 µM (inactive) | 5.9 µM (inactive) | 34.4 µM (inactive) | 71.8 µM (inactive) | 16.4 µM (inactive) | 5.27 µM (inactive) | > 100 µM (inactive) | 46.5 µM (inactive) | 9.06 µM (inactive) | 34 µM (inactive) | 4.91 µM (inactive) | 6.78 µM (inactive) | > 100 µM (inactive)
Clc1ccc2c(SCC3CO3)c3ccccc3nc2c1 (configuration not stated) | – | 3.61 µM (inactive) | 2.02 µM (inactive) | 1.66 µM (inactive) | 1.7 µM (inactive) | 6.25 µM (inactive) | 7.31 µM (inactive) | 2.66 µM (inactive) | 2.19 µM (inactive) | 21.1 µM (inactive) | 1.92 µM (inactive) | 4.81 µM (inactive) | 2.12 µM (inactive) | 2.04 µM (inactive) | 17.3 µM (inactive) | 4.27 µM (inactive) | 2.33 µM (inactive) | 2.04 µM (inactive) | 6.03 µM (inactive) | 1.66 µM (inactive)
CC(=O)Oc1ccc(OC(Oc2ccccc2)c2ccccc2)cc1 (configuration not stated) | – | 20.7 µM (inactive) | 15 µM (inactive) | 24.9 µM (inactive) | 23.2 µM (inactive) | 36.2 µM (inactive) | 37.5 µM (inactive) | 26.1 µM (inactive) | 37.9 µM (inactive) | 32.6 µM (inactive) | 38.6 µM (inactive) | 14.7 µM (inactive) | 19 µM (inactive) | 23.6 µM (inactive) | 23.7 µM (inactive) | 21.6 µM (inactive) | 18.9 µM (inactive) | 14.9 µM (inactive) | 27 µM (inactive) | 39.9 µM (inactive)
OC1c2ccccc2CCC1CN1CCN(CCOC(c2ccc(F)cc2)c2ccc(F)cc2)CC1 (configuration not stated) | – | 13.8 µM (inactive) | 13.1 µM (inactive) | 8.22 µM (inactive) | 20.5 µM (inactive) | 20.5 µM (inactive) | 23.6 µM (inactive) | 6.18 µM (inactive) | 14.3 µM (inactive) | 94.8 µM (inactive) | 16.2 µM (inactive) | 4.79 µM (inactive) | 9.16 µM (inactive) | 15.2 µM (inactive) | 12.3 µM (inactive) | 15.4 µM (inactive) | 13.8 µM (inactive) | 2.53 µM (inactive) | 12.4 µM (inactive) | 12.5 µM (inactive)
Cc1ccc(Nc2nc3[nH]ccc3c(=O)[nH]2)cc1 | – | 93.8 µM (inactive) | > 100 µM (inactive) | > 100 µM (inactive) | > 100 µM (inactive) | > 100 µM (inactive) | 66.1 µM (inactive) | 14.5 µM (inactive) | > 100 µM (inactive) | > 100 µM (inactive) | > 100 µM (inactive) | 71.6 µM (inactive) | > 100 µM (inactive) | > 100 µM (inactive) | 18.1 µM (inactive) | > 100 µM (inactive) | 52.7 µM (inactive) | > 100 µM (inactive) | 70.3 µM (inactive) | 56.1 µM (inactive)
O=C(Oc1cccc2cccnc12)c1cc2cc(CCl)ccc2oc1=O | – | 8.57 µM (inactive) | 10.6 µM (inactive) | 3.4 µM (inactive) | 24 µM (inactive) | 44.3 µM (inactive) | 27.7 µM (inactive) | 17.3 µM (inactive) | 34 µM (inactive) | > 100 µM (inactive) | 4.56 µM (inactive) | 20.3 µM (inactive) | 34.2 µM (inactive) | 15.7 µM (inactive) | 48.8 µM (inactive) | 10.9 µM (inactive) | 27.1 µM (inactive) | 4.27 µM (inactive) | 31.5 µM (inactive) | 4.29 µM (inactive)
CSC1=Nc2ccccc2N=C(c2ccc(Cl)cc2)C1 | 45 µM (inactive) | 42.8 µM (inactive) | 40.5 µM (inactive) | 26.5 µM (inactive) | 36.8 µM (inactive) | > 100 µM (inactive) | 43.8 µM (inactive) | 20.4 µM (inactive) | 52.7 µM (inactive) | 73.3 µM (inactive) | 39.1 µM (inactive) | > 10 µM (inactive) | – | 35.2 µM (inactive) | – | 40.2 µM (inactive) | – | 32.1 µM (inactive) | – | –
CSc1nc(C)cc(Nc2ccc(O)c(CN3CCOCC3)c2)n1 | – | > 100 µM (inactive) | > 100 µM (inactive) | > 100 µM (inactive) | > 100 µM (inactive) | > 100 µM (inactive) | > 100 µM (inactive) | > 100 µM (inactive) | > 100 µM (inactive) | > 100 µM (inactive) | > 100 µM (inactive) | > 100 µM (inactive) | 62.8 µM (inactive) | > 100 µM (inactive) | > 100 µM (inactive) | > 100 µM (inactive) | > 100 µM (inactive) | > 100 µM (inactive) | > 100 µM (inactive) | 71.9 µM (inactive)
